In ChEMBL document CHEMBL3102761, “Discovery of Clinical Candidate GSK1842799 As a Selective S1P1 Receptor Agonist (Prodrug) for Multiple Sclerosis” (ACS Med Chem Lett, 2013):
In brackets after ≈: the same amount, converted by molar mass. Activity calls are given as the source filed them. No cut-off for these calls is given here.

Legend:
Homo sapiens [1] = organism: Homo sapiens; test: Selectivity ratio for S1P3R (unknown origin) to S1P1R (unknown origin)
[2] = molecular target: T1, Sphingosine 1-phosphate receptor 1 (Homo sapiens, UniProt P21453); test: Agonist activity at S1P1R (unknown origin) assessed as [33P] binding activity
T1 sequence (P21453 whole entry): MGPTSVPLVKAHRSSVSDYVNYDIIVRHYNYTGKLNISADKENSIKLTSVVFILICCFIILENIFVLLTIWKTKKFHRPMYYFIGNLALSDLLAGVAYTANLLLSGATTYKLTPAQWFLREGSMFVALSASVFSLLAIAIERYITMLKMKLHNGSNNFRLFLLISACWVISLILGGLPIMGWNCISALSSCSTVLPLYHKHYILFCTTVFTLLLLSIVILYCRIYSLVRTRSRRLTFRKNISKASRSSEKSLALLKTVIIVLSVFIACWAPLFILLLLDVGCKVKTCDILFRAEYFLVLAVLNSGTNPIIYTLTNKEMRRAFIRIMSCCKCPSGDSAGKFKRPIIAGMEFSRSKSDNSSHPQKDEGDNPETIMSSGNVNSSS

[3] = molecular target: T2, Sphingosine 1-phosphate receptor 3 (Homo sapiens, UniProt Q99500); test: Agonist activity at S1P3R (unknown origin) assessed as [33P] binding activity
Target sequence in this assay (Q99500 whole entry, looked up): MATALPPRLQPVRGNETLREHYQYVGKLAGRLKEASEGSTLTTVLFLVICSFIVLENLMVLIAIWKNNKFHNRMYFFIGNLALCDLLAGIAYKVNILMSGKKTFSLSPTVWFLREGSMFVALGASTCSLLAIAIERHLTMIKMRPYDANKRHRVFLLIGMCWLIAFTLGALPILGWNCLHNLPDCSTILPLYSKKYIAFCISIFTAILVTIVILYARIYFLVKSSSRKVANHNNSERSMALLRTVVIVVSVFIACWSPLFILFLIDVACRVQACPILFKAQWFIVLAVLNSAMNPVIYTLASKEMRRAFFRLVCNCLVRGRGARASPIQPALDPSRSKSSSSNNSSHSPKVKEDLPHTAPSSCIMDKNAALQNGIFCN

[4] = Metabolic stability in cynomolgus monkey liver microsomes; assay type: ADME, Macaca fascicularis, Microsome
Liver microsome [5] = test: Metabolic stability in dog liver microsomes; assay type: ADME, Canis lupus familiaris
Liver microsome [6] = test: Metabolic stability in rat liver microsomes; assay type: ADME
[7] = Inhibition of CYP450 (unknown origin); assay type: ADME; conditions: human
[8] = Aqueous solubility of the compound; assay type: physicochemical; conditions: buffer
Caco-2 = test: Permeability across human Caco2 cells; assay type: ADME, cell-based
Mus musculus [9] = test: Reduction in clinical symptoms in MOG peptide experimental autoimmune encephalitis (EAE) mouse multiple sclerosis disease model at 3 mg/kg, po qd; assay type: functional, organism-based; set-up: dose 3 mg/kg
Mus musculus [10] = test: Induction of lymphopenia in po dosed C57BL/6 mouse measured at 6 hrs post-dose relative to vehicle-treated control; assay type: functional, organism-based
Mus musculus [11] = test: Induction of lymphopenia in C57BL/6 mouse at 0.1 mg/kg, po at 6 hrs post-dose relative to vehicle-treated control; assay type: functional, organism-based; set-up: dose 0.1 mg/kg
Homo sapiens [12] = organism: Homo sapiens; test: Selectivity ratio of EC50 for S1P3R (unknown origin) to EC50 for S1P1R (unknown origin)
[13] = molecular target: Sphingosine 1-phosphate receptor 5 (Homo sapiens, UniProt Q9H228); test: Agonist activity at human S1P5R expressed in HEK293T cells assessed as [35S]GTPgammaS binding after 30 mins by scintillation counting; assay type: functional, cell-based, HEK-293T
Sphingosine 1-phosphate receptor 5, sequence (Q9H228 whole entry): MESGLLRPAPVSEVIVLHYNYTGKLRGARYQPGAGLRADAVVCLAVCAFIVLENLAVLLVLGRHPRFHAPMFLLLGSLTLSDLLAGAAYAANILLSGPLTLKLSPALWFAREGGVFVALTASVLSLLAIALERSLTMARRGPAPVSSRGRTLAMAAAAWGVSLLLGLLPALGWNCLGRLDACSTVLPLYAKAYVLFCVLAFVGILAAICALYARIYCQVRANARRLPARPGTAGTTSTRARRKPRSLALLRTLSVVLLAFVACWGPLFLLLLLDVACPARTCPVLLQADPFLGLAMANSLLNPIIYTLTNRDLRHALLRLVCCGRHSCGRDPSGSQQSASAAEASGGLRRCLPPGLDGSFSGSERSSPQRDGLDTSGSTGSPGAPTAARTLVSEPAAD

[14] = molecular target: T3, Sphingosine 1-phosphate receptor 4 (Homo sapiens, UniProt O95977); test: Agonist activity at human S1P4R expressed in HEK293T cells assessed as [35S]GTPgammaS binding after 30 mins by scintillation counting; assay type: functional, cell-based, HEK-293T
T3 sequence (O95977 whole entry): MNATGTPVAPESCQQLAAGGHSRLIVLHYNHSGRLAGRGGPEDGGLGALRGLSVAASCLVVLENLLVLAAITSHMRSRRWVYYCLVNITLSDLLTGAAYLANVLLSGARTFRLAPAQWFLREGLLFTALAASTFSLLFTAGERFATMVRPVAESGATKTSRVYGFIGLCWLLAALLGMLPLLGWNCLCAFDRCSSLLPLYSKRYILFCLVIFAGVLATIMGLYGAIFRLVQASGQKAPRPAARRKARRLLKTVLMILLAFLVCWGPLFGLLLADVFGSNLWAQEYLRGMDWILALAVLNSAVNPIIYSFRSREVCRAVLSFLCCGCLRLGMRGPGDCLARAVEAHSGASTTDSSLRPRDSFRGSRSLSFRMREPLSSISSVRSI

[15] = molecular target: T2, Sphingosine 1-phosphate receptor 3; test: Agonist activity at human S1P3R expressed in HEK293T cells assessed as [35S]GTPgammaS binding after 30 mins by scintillation counting; assay type: functional, cell-based, HEK-293T
Target sequence in this assay (Q99500 whole entry): as the sequence (Q99500 whole entry, looked up) above

[16] = molecular target: T1, Sphingosine 1-phosphate receptor 1; test: Agonist activity at human S1P1R expressed in HEK293T cells assessed as [35S]GTPgammaS binding after 30 mins by scintillation counting; assay type: functional, cell-based, HEK-293T
Mus musculus [17] = test: Induction of lymphopenia in C57BL/6 mouse at 10 mg/kg, po at 6 hrs post-dose
Liver microsome [18] = test: Metabolic stability in human liver microsomes; assay type: ADME
Cynomolgus monkey = test: Induction of […] in po dosed cynomolgus monkey; assay type: functional, Macaca fascicularis
[19] = Cmax in cynomolgus monkey at 3.8 mg/kg, po administered as single dose; assay type: ADME, organism-based, Macaca fascicularis; set-up: dose 3.8 mg/kg, route oral; conditions: in vivo
Plasma [20] = test: Plasma concentration in rat assessed as phosphorylated compound at 3 mg/kg, po administered as single dose; assay type: ADME, organism-based; set-up: dose 3 mg/kg, route oral; conditions: in vivo
Plasma [21] = test: Plasma concentration in cynomolgus monkey assessed as phosphorylated compound at 3.8 mg/kg, po administered as single dose; assay type: ADME, organism-based, Macaca fascicularis; set-up: dose 3.8 mg/kg, route oral; conditions: in vivo
Plasma [22] = test: Plasma concentration in dog assessed as phosphorylated compound at 5 mg/kg, po administered as single dose; assay type: ADME, organism-based, Canis lupus familiaris; set-up: dose 5 mg/kg, route oral; conditions: in vivo
Homo sapiens [23] = organism: Homo sapiens; test: Selectivity ratio for human Sphk1 to human Sphk2

Structure (SMILES) | Selectivity ratio (Homo sapiens [1]) | Activity [2] | Activity [3] | other results
CCCCCCCCOc1ccc(-c2cnc([C@@](C)(N)CO)s2)cc1C(F)(F)F | – | – | – | Stability [4]: Stable; Stability (Liver microsome [5]): Stable; Stability (Liver microsome [6]): Stable; inhibition (INH) [7]: Not Active; solubility [8]: soluble; permeability (Caco-2): permeable; Activity (Mus musculus [9]): Active; Activity (Mus musculus [10]): Dose-dependent effect; Activity (Mus musculus [11]): Active
CCCCCCCCOc1ccc(-c2cc([C@@](C)(N)COP(=O)(O)O)on2)cc1C(F)(F)F | 1210 | 0.14 nM | 0.17 µM | –
C[C@](N)(COP(=O)(O)O)c1ncc(-c2ccc(OCc3ccc(-c4ccccc4)cc3)c(C(F)(F)F)c2)o1 | > 8000 | 1.1 nM | > 10 µM | –
CCCCCCCCOc1ccc(-c2cnc([C@@](C)(N)COP(=O)(O)O)s2)cc1C(F)(F)F | 1670 | 0.18 nM | 0.3 µM | Ratio EC50 (Homo sapiens [12]): > 6800; EC50 [13]: 2 nM; EC50 [14]: 3.6 nM; EC50 [15]: > 3000 nM; EC50 [16]: 0.44 nM; Activity (Mus musculus [17]): 98%
CCCCCCCCOc1ccc(-c2nnc([C@@](C)(N)CO)s2)cc1C(F)(F)F | – | – | – | Stability (Liver microsome [18]): Stable; EC90 (Cynomolgus monkey): 0.0162 µg/mL (≈ 0.0375 µM); Stability [4]: Stable; Stability (Liver microsome [5]): Stable; Stability (Liver microsome [6]): Stable; Cmax [19]: 50.9 ng/mL; Cp (Plasma [20]): 10 ng/mL; Cp (Plasma [21]): 10 ng/mL; Cp (Plasma [22]): 10 ng/mL; inhibition (INH) [7]: Not Active; solubility [8]: soluble; permeability (Caco-2): permeable; Activity (Mus musculus [9]): Active; Activity (Mus musculus [10]): Dose-dependent effect; Activity (Mus musculus [11]): Active
CCCCCCCCOc1ccc(-c2cc([C@@](C)(N)COP(=O)(O)O)[nH]n2)cc1C(F)(F)F | > 12000 | 0.83 nM | > 10 µM | –
CCCCCCCCOc1ccc(-c2nnc([C@@](C)(N)COP(=O)(O)O)o2)cc1C(F)(F)F | > 359 | 27.8 nM | > 10 µM | –
CCCCCCCCCCCCC/C=C/[C@@H](O)[C@@H](N)COP(=O)(O)O | – | – | – | EC50 [14]: 13 nM; EC50 [15]: 3.94 nM; EC50 [16]: 4.25 nM
Cc1oc([C@@](C)(N)COP(=O)(O)O)nc1-c1ccc(OCc2ccc(-c3ccccc3)cc2)c(C(F)(F)F)c1 | > 5000 | 2.1 nM | > 10 µM | –
CCCCCCCCc1ccc(CCC(N)(CO)CO)cc1 | – | – | – | Selectivity ratio (Homo sapiens [23]): 30; Activity (Mus musculus [9]): Active
C[C@](N)(COP(=O)(O)O)c1nc(-c2ccc(OCc3ccc(-c4ccccc4)cc3)c(C(F)(F)F)c2)c[nH]1 | 8860 | 0.83 nM | 7.35 µM | –
Cc1nc([C@@](C)(N)COP(=O)(O)O)[nH]c1-c1ccc(OCc2ccc(-c3ccccc3)cc2)c(C(F)(F)F)c1 | 11900 | 0.65 nM | 7.67 µM | –

Now from value to molecule, other results behind:

Selectivity ratio (Homo sapiens [1]) | Activity [2] | Activity [3] | Structure (SMILES) | other results
1190 | 0.73 nM | 0.867 µM | C[C@](N)(COP(=O)(O)O)c1ncc(-c2ccc(OCc3ccc(-c4ccccc4)cc3)c(C(F)(F)F)c2)s1 | –
3290 | 0.52 nM | 1.9 µM | CCCCCCCCOc1ccc(-c2nnc([C@@](C)(N)COP(=O)(O)O)s2)cc1C(F)(F)F | Ratio EC50 (Homo sapiens [12]): > 11500; EC50 [13]: 0.66 nM; EC50 [14]: 4.57 nM; EC50 [15]: > 3000 nM; EC50 [16]: 0.26 nM; Activity (Mus musculus [17]): 119%
> 4350 | 2.3 nM | > 10 µM | NC(CO)(COP(=O)(O)O)c1nc(-c2ccc(OCc3ccc(-c4ccccc4)cc3)c(C(F)(F)F)c2)c[nH]1 (centres undefined) | –
> 5260 | 1.9 nM | > 10 µM | CCCCCCCCOc1ccc(-c2noc([C@@](C)(N)COP(=O)(O)O)n2)cc1C(F)(F)F | –
> 6250 | 1.6 nM | > 10 µM | C[C@](N)(COP(=O)(O)O)c1nc(-c2ccc(OCc3ccc(-c4ccccc4)cc3)c(C(F)(F)F)c2)cs1 | –
2170 | 0.3 nM | 0.65 µM | N[C@@H](COP(=O)(O)O)c1nc(-c2ccc(OCc3ccc(-c4ccccc4)cc3)c(C(F)(F)F)c2)c[nH]1 | –
2540 | 1.77 nM | 4.5 µM | C[C@](N)(COP(=O)(O)O)c1nnc(-c2ccc(OCc3ccc(-c4ccccc4)cc3)c(C(F)(F)F)c2)s1 | –
3340 | 1.46 nM | 4.87 µM | CCCCCCCCOc1ccc(-c2cnc([C@@](C)(N)COP(=O)(O)O)[nH]2)cc1C(F)(F)F | –
